Experimental data from patent US4983740A, “Process for 1,4-dihydropyridine compounds” (Adir et Compagnie, priority 1986, dated 1991).

What was measured:
rat aorta = assay: In vitro activity in rat aorta stimulated by potassium ions; format: cell-based, rat (male Wistar); details: 1 h; rat aorta rings, KCl 80 mM stimulation, cumulative doses at 60 minutes intervals
Protocol: Determination of the Vitro Activity in Rat Aorta Stimulated by Potassium Ions
This trial was carried out using isolated organs removed from male Wistar rats weighing 300 to 400 g, kept under a water diet 18 hours before sacrificing.
After quickly sacrificing the animal, the aorta (at the level of the arch of the aorta) is removed and dissected into 2 mm-long rings; the endothelium is removed mechanically. After an equilibration period of 1 hour in a physiological solution consisting of (mM): NaCl 112, KCl 5, KH2 PO4 1, MgSO4 1.2, CaCl2 2.5, NaHCO3 25 and glucose 11.5, the preparations are stimulated with a potassium-rich solution. The latter consists of (mM):NaCl 37, KCl 80, KH2 PO4 1, MgSO4 1.2, CaCl2 2.5, NaHCO3 25 and glucose 11.5. This solution has a pH of 7.4 at 37° C.
After 15 minutes of stabilization, the compounds to be tested are then added (sample volume 0.2 ml) at cumulative doses at 60 minutes intervals. From the relaxation values obtained, it is possible to construct a doseresponse curve, leading to the calculation of an IC50 value (expressed in M).

[1] = test system: conscious dogs with renal hypertension; assay: Study in conscious dogs with renal hypertension (oral, mean arterial pressure); format: in vivo, dog (Mongol); details: digestive route
Text: Study in Conscious Dogs with Renal Hypertension
Mongol dogs weighing 20 to 25 kg are used. A Silastic® catheter, inserted under anesthesia at the level of the abdominal aorta, left in position permanently, enables the arterial pressure to be determined subsequently in the conscious animal.
Arterial hypertension is induced by a second operation, under anesthesia, consisting in constricting the left renal artery with a clip, decreasing the flow rate therein by approximately 70%, the left kidney is also covered with a latex capsule in order to restrict circulatory compensations; the contralateral kidney is left in position.
The systolic, diastolic and mean arterial pressures are determined with a Statham® P23 pressure sensor attached to the Silastic® catheter and connected to a Gould® "pressure-processor". The compounds are tested in animals which became hypertensive in the conscious state at least one week after the second operation. The arterial pressure is continuously recorded up to 7 hours after the treatment and then at 24 hours.
The compounds to be tested are administered by the digestive route through gastric tubing, in the form of a solution which may be aqueous, aqueous/alcoholic and the like, depending on the solubility of the products.
The doses administered are expressed in mg base per body weight kg.

[2] = test system: conscious spontaneous hypertensive rats (SHR); assay: Short-term studies in conscious spontaneous hypertensive rats (oral, systolic arterial pressure); format: in vivo, rat (SHR)
Protocol: Short-term Studies in Conscious Spontaneous Hypertensive Rats (SHR)
Male spontaneous hypertensive rats weighing 270 to 320 g, aged 16 to 24 weeks, are anesthetized with ether. A polyethylene catheter is introduced into the femoral artery and moved forward to the level of the tail. The pressure in the femoral artery is recorded with a Statham® P23 sensor, on a Gould® 2400 recorder. The animals are treated at least one hour after the operation. The compounds are administered orally, in the dissolved form. The doses administered are expressed in mg/kg of base. The compounds of the invention were compared with amlodipine and with another 1,4-dihydropyridine derivative reference compound, nifedipine.

[3] = test system: conscious spontaneous hypertensive rats (SHR); assay: Long-term studies in conscious spontaneous hypertensive rats (oral, single daily dose, systolic arterial pressure); format: in vivo, rat (SHR); details: 1 mg/kg/d; for Systolic arterial pressure Δ(mm Hg) 24 h after the last administration of the products, D1: day 1; for Systolic arterial pressure Δ(mm Hg) 24 h after the last administration of the products, D2: day 2; for Systolic arterial pressure Δ(mm Hg) 24 h after the last administration of the products, D3: day 3; for Systolic arterial pressure Δ(mm Hg) 24 h after the last administration of the products, D4: day 4; for Systolic arterial pressure Δ(mm Hg) 24 h after the last administration of the products, D7: day 7
Protocol: Long-term Studies in Conscious Spontaneous Hypertensive rats (SHR) Male rats weighing 280 to 300 g, aged 16 weeks, are used in this study. The systolic arterial pressure is determined with a Rhema multichannel 8,000® apparatus, according to the indirect method, at the tail of the animal. The compounds to be tested are administered orally, in a single daily dose. Determinations of arterial pressure are carried out each day just before the treatment. Amlodipine was also studied under the same conditions.

IC50 (rat aorta) [nM]	Structure (SMILES)	Mean arterial pressure after treatment, Δ mm Hg, 4 h ([1]; 0.5 mg/kg) [mm Hg]	Mean arterial pressure after treatment, Δ mm Hg, 7 h ([1]; 0.5 mg/kg) [mm Hg]	Mean arterial pressure after treatment, Δ mm Hg, 24 h ([1]; 0.5 mg/kg) [mm Hg]	Mean arterial pressure after treatment, Δ mm Hg, 4 h ([1]; 1.0 mg/kg) [mm Hg]	Mean arterial pressure after treatment, Δ mm Hg, 7 h ([1]; 1.0 mg/kg) [mm Hg]	Mean arterial pressure after treatment, Δ mm Hg, 24 h ([1]; 1.0 mg/kg) [mm Hg]	Systolic arterial pressure after treatment, Δ mm Hg, 4 h ([2]; 1 mg/kg) [mm Hg]	Systolic arterial pressure after treatment, Δ mm Hg, 6 h ([2]; 1 mg/kg) [mm Hg]	Systolic arterial pressure after treatment, Δ mm Hg, 24 h ([2]; 1 mg/kg) [mm Hg]	Systolic arterial pressure after treatment, Δ mm Hg, 4 h ([2]; 3 mg/kg) [mm Hg]	Systolic arterial pressure after treatment, Δ mm Hg, 6 h ([2]; 3 mg/kg) [mm Hg]	Systolic arterial pressure after treatment, Δ mm Hg, 24 h ([2]; 3 mg/kg) [mm Hg]	Systolic arterial pressure Δ(mm Hg) 24 h after the last administration of the products, D1 [3] [mm Hg]	Systolic arterial pressure Δ(mm Hg) 24 h after the last administration of the products, D2 [3] [mm Hg]	Systolic arterial pressure Δ(mm Hg) 24 h after the last administration of the products, D3 [3] [mm Hg]	Systolic arterial pressure Δ(mm Hg) 24 h after the last administration of the products, D4 [3] [mm Hg]	Systolic arterial pressure Δ(mm Hg) 24 h after the last administration of the products, D7 [3] [mm Hg]
25	CCOC(=O)C1=C(COCCOCCN)NC(C)=C(C(=O)OC)C1c1c(F)c(F)c(F)c(F)c1F (racemic) [EXAMPLE 1, (4R,S)-2-{[2-(2-Aminoethoxy)ethoxy]methyl}-3-ethoxycarbonyl-5-methoxycarbonyl-6-methyl-4-pentafluorophenyl-1,4-dihydropyridine hemifumarate]	-21	-22	-15	-45	-47	-46	-44	-54	-47	-79	-78	-71	-52	-51	-49	-44	-46
	CCOC(=O)C1=C(COCCN)NC(C)=C(C(=O)OC)C1c1ccccc1Cl (centres unmarked) [AMLODIPINE, amlodipine, reference compound]	-28	-20	-10	-45	-39	-29				-47	-46	-13	-9	-8	-14	-14	-9
